Assay results from article PMC9120017, “Inhibition mechanism of the chloride channel TMEM16A by the pore blocker 1PBC” (Nature Communications, 2022).
Read-outs that look alike come from different tables or passages of the source.

Molecular target: T1, mouse TMEM16A mutant V543A (Mus musculus, UniProt Q8BHY3, V543A)
T1 construct: expressed in transfected cells; host or cells: HEK293T
T1 sequence (Q8BHY3 1-960 V543A): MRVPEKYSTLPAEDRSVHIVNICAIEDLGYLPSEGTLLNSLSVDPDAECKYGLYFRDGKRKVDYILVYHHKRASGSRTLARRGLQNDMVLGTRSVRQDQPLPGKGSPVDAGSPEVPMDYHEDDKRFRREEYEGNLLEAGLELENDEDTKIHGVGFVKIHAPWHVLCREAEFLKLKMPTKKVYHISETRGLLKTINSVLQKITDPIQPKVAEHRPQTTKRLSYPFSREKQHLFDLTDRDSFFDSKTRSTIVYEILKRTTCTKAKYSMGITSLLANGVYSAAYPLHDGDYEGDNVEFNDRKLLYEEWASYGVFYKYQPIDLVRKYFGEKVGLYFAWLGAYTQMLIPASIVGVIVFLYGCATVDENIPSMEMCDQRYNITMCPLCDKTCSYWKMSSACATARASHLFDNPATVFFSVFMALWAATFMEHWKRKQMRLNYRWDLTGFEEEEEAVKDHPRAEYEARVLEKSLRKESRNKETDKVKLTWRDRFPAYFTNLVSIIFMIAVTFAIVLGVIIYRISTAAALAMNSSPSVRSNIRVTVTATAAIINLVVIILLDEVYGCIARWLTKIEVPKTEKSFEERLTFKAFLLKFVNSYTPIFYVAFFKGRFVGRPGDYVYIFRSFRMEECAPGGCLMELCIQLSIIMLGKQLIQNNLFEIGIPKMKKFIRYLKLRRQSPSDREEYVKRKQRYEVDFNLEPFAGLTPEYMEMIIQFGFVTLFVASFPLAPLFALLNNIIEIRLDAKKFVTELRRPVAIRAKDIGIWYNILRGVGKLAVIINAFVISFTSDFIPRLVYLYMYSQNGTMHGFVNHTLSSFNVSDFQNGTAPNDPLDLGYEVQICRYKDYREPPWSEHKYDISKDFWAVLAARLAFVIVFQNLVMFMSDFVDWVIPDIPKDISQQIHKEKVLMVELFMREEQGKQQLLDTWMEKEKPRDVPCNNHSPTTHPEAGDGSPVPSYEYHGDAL
Assay: Inside-out patch recording of 1PBC block, mutant V543A
Type: cell-based
Conditions: for remaining activity at 100 µM: 100 µM 1PBC
Experimental: HEK293T cells (ATCC CRL-1573) were maintained in Dulbecco’s modified Eagle’s medium (DMEM; Sigma-Aldrich) supplemented with 10 U ml^−1 penicillin, 0.1 mg ml^−1 streptomycin (Sigma-Aldrich), 2 mM L-glutamine (Sigma-Aldrich), and 10% FBS (Sigma-Aldrich) in a humidified atmosphere containing 5% CO2 at 37 °C. HEK293S GnTI^− cells (ATCC CRL-3022) were maintained in HyClone HyCell TransFx-H medium (GE Healthcare) supplemented with 10 U ml^−1 penicillin, 0.1 mg ml^−1 streptomycin, 4 mM L-glutamine, 0.15% poloxamer 188 (Sigma-Aldrich), and 1% FBS in an atmosphere containing 5% CO2 at 185 rpm at 37 °C. The ac splice variant of mouse TMEM16A (UniProt ID: Q8BHY3), mouse TMEM16B (UniProt ID: Q8CFW1), or mouse TMEM16F (UniProt ID: Q6P9J9) bearing a 3C cleavage site, a Venus YFP, a Myc tag, and a Streptavidin-binding peptide (SBP) downstream of the open reading frame in a modified pcDNA3.1 vector (Invitrogen) were used as described previously[21],[31]. Mutations were introduced using a modified QuikChange method[58] and were verified by sequencing.
HEK293T cells were transfected with 3–4 μg DNA per 6 cm Petri dish using the calcium phosphate co-precipitation method and were used within 24–96 h after transfection. Recordings were performed on inside-out patches excised from HEK293T cells expressing the construct of interest. Patch pipettes were pulled from borosilicate glass capillaries (O.D. 1.5 mm, I.D. 0.86 mm, Sutter Instrument) and were fire-polished with a microforge (Narishige) before use. Pipette resistance was typically 3–8 MΩ when filled with the recording solutions detailed below. Seal resistance was typically 4 GΩ or higher. Voltage-clamp recordings were made using Axopatch 200B, Digidata 1550, and Clampex 10.7 (Molecular Devices). Analog signals were filtered with the in-built 4-pole Bessel filter at 10 kHz and were digitized at 20 kHz. Solution exchange was achieved using a gravity-fed system through a theta glass pipette mounted on an ultra-fast piezo-driven stepper (Siskiyou). […] All recordings were performed at 20 °C.
A symmetrical ionic condition was used throughout. Stock solution with Ca^2+-EGTA contained 150 mM NaCl, 5.99 mM Ca(OH)2, 5 mM EGTA, and 10 mM HEPES at pH 7.40. Stock solution with EGTA contained 150 mM NaCl, 5 mM EGTA, and 10 mM HEPES at pH 7.40. Free Ca^2+ concentrations were adjusted by mixing the stock solutions at the required ratios calculated using the WEBMAXC program (http://web.stanford.edu/~cpatton/webmaxcS.htm). Patch pipettes were filled with the stock solution with Ca^2+-EGTA, which has a free Ca^2+ concentration of 1 mM. 1PBC (ChemBridge) stock was reconstituted in anhydrous DMSO (Sigma-Aldrich) at 100 mM and stored at −20 °C. Working solutions with 1PBC were prepared by serial dilution. Unless otherwise stated, experiments were performed at a saturating Ca^2+ concentration as shown in Supplementary Table 1 and the primary data were corrected for current rundown as described previously[21],[25].
Concentration-response relations, obtained from the ratio of the I-V plots before and after the application of the blocker, were fitted to the Hill equation,1 I/Imax=1/1+IC50/[blocker]^h where I/Imax is the normalized current responses, IC50 defines the concentration at which inhibition is at its half-maximum, and h is the Hill coefficient.

IC50 (0 mV, 15 µM Ca2+): 11.2 µM
remaining activity at 3 µM (3 µM 1PBC, +80 mV, saturating Ca2+ (15 µM), read-out: I/Imax): 76.2%
remaining activity at 3 µM (3 µM 1PBC, -80 mV, saturating Ca2+ (15 µM), read-out: I/Imax): 86.2%
remaining activity at 10 µM (10 µM 1PBC, +80 mV, saturating Ca2+ (15 µM), read-out: I/Imax): 42.8%
remaining activity at 10 µM (10 µM 1PBC, -80 mV, saturating Ca2+ (15 µM), read-out: I/Imax): 67.5%
remaining activity at 30 µM (30 µM 1PBC, +80 mV, saturating Ca2+ (15 µM), read-out: I/Imax): 20.1%
remaining activity at 30 µM (30 µM 1PBC, -80 mV, saturating Ca2+ (15 µM), read-out: I/Imax): 43.8%
remaining activity at 100 µM (+80 mV, saturating Ca2+ (15 µM), read-out: I/Imax): 6.35%
remaining activity at 100 µM (-80 mV, saturating Ca2+ (15 µM), read-out: I/Imax): 18.7%
remaining activity at 3 µM (1PBC 3, 0 mV, read-out: fraction of unblocked current): 79.2%
remaining activity at 3 µM (1PBC 3, 20 mV, read-out: fraction of unblocked current): 77.2%
remaining activity at 3 µM (1PBC 3, 40 mV, read-out: fraction of unblocked current): 76.3%
remaining activity at 3 µM (1PBC 3, 60 mV, read-out: fraction of unblocked current): 75.5%
remaining activity at 3 µM (1PBC 3, 80 mV, read-out: fraction of unblocked current): 76.2%
remaining activity at 3 µM (1PBC 3, 100 mV, read-out: fraction of unblocked current): 78.6%
remaining activity at 3 µM (1PBC 3, 120 mV, read-out: fraction of unblocked current): 80.1%
remaining activity at 3 µM (1PBC 3, 140 mV, read-out: fraction of unblocked current): 83.1%
remaining activity at 3 µM (1PBC 3, -20 mV, read-out: fraction of unblocked current): 81.1%
remaining activity at 3 µM (1PBC 3, -40 mV, read-out: fraction of unblocked current): 83.5%
remaining activity at 3 µM (1PBC 3, -60 mV, read-out: fraction of unblocked current): 84.9%
remaining activity at 3 µM (1PBC 3, -80 mV, read-out: fraction of unblocked current): 86.2%
remaining activity at 3 µM (1PBC 3, -100 mV, read-out: fraction of unblocked current): 87.3%
remaining activity at 3 µM (1PBC 3, -120 mV, read-out: fraction of unblocked current): 88.4%
remaining activity at 3 µM (1PBC 3, -140 mV, read-out: fraction of unblocked current): 89.4%
remaining activity at 10 µM (1PBC 10, 0 mV, read-out: fraction of unblocked current): 52.5%
remaining activity at 10 µM (1PBC 10, 20 mV, read-out: fraction of unblocked current): 48.7%
remaining activity at 10 µM (1PBC 10, 40 mV, read-out: fraction of unblocked current): 45.6%
remaining activity at 10 µM (1PBC 10, 60 mV, read-out: fraction of unblocked current): 43.7%
remaining activity at 10 µM (1PBC 10, 80 mV, read-out: fraction of unblocked current): 42.8%
remaining activity at 10 µM (1PBC 10, 100 mV, read-out: fraction of unblocked current): 43.3%
remaining activity at 10 µM (1PBC 10, 120 mV, read-out: fraction of unblocked current): 44.7%
remaining activity at 10 µM (1PBC 10, 140 mV, read-out: fraction of unblocked current): 45.8%
remaining activity at 10 µM (1PBC 10, -20 mV, read-out: fraction of unblocked current): 56.4%
remaining activity at 10 µM (1PBC 10, -40 mV, read-out: fraction of unblocked current): 60.6%
remaining activity at 10 µM (1PBC 10, -60 mV, read-out: fraction of unblocked current): 64.3%
remaining activity at 10 µM (1PBC 10, -80 mV, read-out: fraction of unblocked current): 67.5%
remaining activity at 10 µM (1PBC 10, -100 mV, read-out: fraction of unblocked current): 70.7%
remaining activity at 10 µM (1PBC 10, -120 mV, read-out: fraction of unblocked current): 73.2%
remaining activity at 10 µM (1PBC 10, -140 mV, read-out: fraction of unblocked current): 75.5%
remaining activity at 30 µM (1PBC 30, 0 mV, read-out: fraction of unblocked current): 27.4%
remaining activity at 30 µM (1PBC 30, 20 mV, read-out: fraction of unblocked current): 23.9%
remaining activity at 30 µM (1PBC 30, 40 mV, read-out: fraction of unblocked current): 21.7%
remaining activity at 30 µM (1PBC 30, 60 mV, read-out: fraction of unblocked current): 20.8%
remaining activity at 30 µM (1PBC 30, 80 mV, read-out: fraction of unblocked current): 20.1%
remaining activity at 30 µM (1PBC 30, 100 mV, read-out: fraction of unblocked current): 20.1%
remaining activity at 30 µM (1PBC 30, 120 mV, read-out: fraction of unblocked current): 21.6%
remaining activity at 30 µM (1PBC 30, 140 mV, read-out: fraction of unblocked current): 22.4%
remaining activity at 30 µM (1PBC 30, -20 mV, read-out: fraction of unblocked current): 30.9%
remaining activity at 30 µM (1PBC 30, -40 mV, read-out: fraction of unblocked current): 34.9%
SMILES: N#Cc1c(C(F)(F)F)cc(O)n2c1nc1ccccc12 [1PBC]
